Experiment: molar heat capacity at constant pressure
Details: 101.33 kPa, Liquid

CCCCBr [1-bromobutane]
Details	molar heat capacity at constant pressure [J/K/mol]
284.15 K	159.45
286.65 K	159.98
289.15 K	160.53
291.65 K	161.01
294.15 K	161.52
296.65 K	162.08
299.15 K	162.6
301.65 K	163.08
304.15 K	163.72
306.65 K	164.22
309.15 K	164.78
311.65 K	165.34
314.15 K	165.94
316.65 K	166.49
319.15 K	167.09
321.65 K	167.67
324.15 K	168.29
326.65 K	168.83
329.15 K	169.45
331.65 K	170.09
334.15 K	170.63
336.65 K	171
339.15 K	171.94
341.65 K	172.57
344.15 K	173.26
346.65 K	173.89
349.15 K	174.51
351.65 K	175.19
353.15 K	175.47

CCCCCCCCCCBr [1-bromodecane]
Details	molar heat capacity at constant pressure [J/K/mol]
284.15 K	332.6
286.65 K	333.65
289.15 K	335
291.65 K	336.08
294.15 K	336.9
296.65 K	338.2
299.15 K	339.29
301.65 K	340.37
304.15 K	341.48
306.65 K	342.74
309.15 K	343.89
311.65 K	345.13
314.15 K	346.34
316.65 K	347.51
319.15 K	348.84
321.65 K	350.1
324.15 K	351.41
326.65 K	352.71
329.15 K	354.02
331.65 K	355.32
334.15 K	356.14
336.65 K	357.34
339.15 K	359.3
341.65 K	360.7
344.15 K	362.13
346.65 K	363.37
349.15 K	364.86
351.65 K	366.38
353.15 K	367.07

CCCCCCCBr [1-bromoheptane]
Details	molar heat capacity at constant pressure [J/K/mol]
284.15 K	244.73
286.65 K	245.56
289.15 K	246.44
291.65 K	247.28
294.15 K	248.12
296.65 K	248.93
299.15 K	249.7
301.65 K	250.38
304.15 K	251.56
306.65 K	252.33
309.15 K	253.19
311.65 K	254.14
314.15 K	255
316.65 K	255.97
319.15 K	256.84
321.65 K	257.85
324.15 K	258.76
326.65 K	259.71
329.15 K	260.68
331.65 K	261.61
334.15 K	262.5
336.65 K	262.97
339.15 K	264.64
341.65 K	265.49
344.15 K	266.52
346.65 K	267.46
349.15 K	268.47
351.65 K	269.51
353.15 K	270.03

CCCCCCBr [1-bromohexane]
Details	molar heat capacity at constant pressure [J/K/mol]
284.15 K	215.54
286.65 K	216.29
289.15 K	217.08
291.65 K	217.78
294.15 K	218.54
296.65 K	219.26
299.15 K	219.99
301.65 K	220.68
304.15 K	221.38
306.65 K	222.22
309.15 K	222.98
311.65 K	223.79
314.15 K	224.63
316.65 K	225.37
319.15 K	226.2
321.65 K	227.01
324.15 K	227.86
326.65 K	228.67
329.15 K	229.55
331.65 K	230.39
334.15 K	231.21
336.65 K	231.59
339.15 K	233.25
341.65 K	233.77
344.15 K	234.73
346.65 K	235.64
349.15 K	236.55
351.65 K	237.39
353.15 K	237.85

CCCCCCCCCBr [1-bromononane]
Details	molar heat capacity at constant pressure [J/K/mol]
284.15 K	302.55
286.65 K	303.54
289.15 K	304.62
291.65 K	305.57
294.15 K	306.69
296.65 K	307.68
299.15 K	308.8
301.65 K	309.82
304.15 K	310.95
306.65 K	311.91
309.15 K	313.01
311.65 K	314.1
314.15 K	315.18
316.65 K	316.32
319.15 K	317.44
321.65 K	318.7
324.15 K	319.8
326.65 K	320.96
329.15 K	322.16
331.65 K	323.32
334.15 K	324.63
336.65 K	325
339.15 K	326.99
341.65 K	328.13
344.15 K	329.39
346.65 K	330.49
349.15 K	331.79
351.65 K	333.04
353.15 K	333.74

CCCCCBr [1-bromopentane]
Details	molar heat capacity at constant pressure [J/K/mol]
284.15 K	187.88
286.65 K	188.46
289.15 K	189.17
291.65 K	189.85
294.15 K	190.33
296.65 K	190.94
299.15 K	191.57
301.65 K	192.17
304.15 K	193.01
306.65 K	193.53
309.15 K	194.17
311.65 K	194.86
314.15 K	195.6
316.65 K	196.21
319.15 K	196.98
321.65 K	197.61
324.15 K	198.35
326.65 K	199.09
329.15 K	199.8
331.65 K	200.47
334.15 K	201.48
336.65 K	201.57
339.15 K	202.76
341.65 K	203.58
344.15 K	204.33
346.65 K	205.07
349.15 K	205.89
351.65 K	206.69
353.15 K	207.05

CCCBr [1-bromopropane]
Details	molar heat capacity at constant pressure [J/K/mol]
269.15 K	129.02
271.65 K	129.44
274.15 K	129.78
276.65 K	130.1
279.15 K	130.48
281.65 K	130.86
284.15 K	131.2
286.65 K	131.64
289.15 K	132.01
291.65 K	132.46
294.15 K	132.78
296.65 K	133.2
299.15 K	133.64
301.65 K	134
304.15 K	134.55
306.65 K	134.93
309.15 K	135.35
311.65 K	135.8
314.15 K	136.23
316.65 K	136.68
319.15 K	137.16
321.65 K	137.6
324.15 K	138.11
326.65 K	138.55

CCCCCl [1-chlorobutane]
Details	molar heat capacity at constant pressure [J/K/mol]
284.15 K	156.22
286.65 K	156.75
289.15 K	157.28
291.65 K	157.7
294.15 K	158.27
296.65 K	158.86
299.15 K	159.48
301.65 K	160.05
304.15 K	160.5
306.65 K	161.06
309.15 K	161.59
311.65 K	162.24
314.15 K	162.92
316.65 K	163.42
319.15 K	164.11
321.65 K	164.82
324.15 K	165
326.65 K	165.97
329.15 K	166.72
331.65 K	167.29
334.15 K	167.78
336.65 K	168.53
339.15 K	169.12
341.65 K	170.01
344.15 K	170.43
346.65 K	170.49
349.15 K	171.5
351.65 K	173.02
353.15 K	173.09

CCCCCCCCCCCl [1-chlorodecane]
Details	molar heat capacity at constant pressure [J/K/mol]
284.15 K	328.57
286.65 K	329.82
289.15 K	331
291.65 K	332.01
294.15 K	333.14
296.65 K	334.13
299.15 K	335.39
301.65 K	336.61
304.15 K	337.47
306.65 K	338.66
309.15 K	339.83
311.65 K	341.39
314.15 K	342.42
316.65 K	343.41
319.15 K	345.04
321.65 K	346.36
324.15 K	346.99
326.65 K	348.75
329.15 K	350.01
331.65 K	351.31
334.15 K	352.76
336.65 K	353.39
339.15 K	355.52
341.65 K	356.17
344.15 K	357.74
346.65 K	358.38
349.15 K	359.65
351.65 K	361.49
353.15 K	362.49

CCCCCCCCl [1-chloroheptane]
Details	molar heat capacity at constant pressure [J/K/mol]
284.15 K	240.95
286.65 K	241.75
289.15 K	242.67
291.65 K	243.4
294.15 K	244.29
296.65 K	245.23
299.15 K	246.05
301.65 K	247.03
304.15 K	247.61
306.65 K	248.53
309.15 K	249.54
311.65 K	250.65
314.15 K	251.6
316.65 K	252.2
319.15 K	253.36
321.65 K	254.42
324.15 K	254.76
326.65 K	256.19
329.15 K	257.57
331.65 K	258.06
334.15 K	258.84
336.65 K	259.88
339.15 K	261.01
341.65 K	261.55
344.15 K	262.9
346.65 K	263.26
349.15 K	264.3
351.65 K	266.04
353.15 K	266.51
